The source of these data is patent publication US8835462B2, “Macrocyclic picolinamides as fungicides” (Dow AgroSciences LLC, priority 2012, dated 2014).

The structures appear in SMILES notation.

In the first assay the test system is Leptosphaeria nodorum. In words: Wheat glume blotch (LEPTNO) fungicidal activity. The format is in vivo. Conditions: Parastagonospora nodorum, 24 h, 1 Day Protectant, read-out: Disease Control LEPTNO 1DP. On the procedure: Technical grades of materials were dissolved in acetone, which were then mixed with nine volumes of water containing 110 ppm Triton X-100. The fungicide solutions were applied onto wheat seedlings using an automated booth sprayer to run-off. All sprayed plants were allowed to air dry prior to further handling. Wheat plants (variety Yuma) were grown from seed in a greenhouse in 50% mineral soil/50% soil-less Metro mix until the first leaf was fully emerged, with 7-10 seedlings per pot. These plants were inoculated with an aqueous spore suspension of Septoria tritici either prior to or after fungicide treatments. After inoculation the plants were kept in 100% relative humidity (one day in a dark dew chamber followed by two to three days in a lighted dew chamber at 20° C.) to permit spores to germinate and infect the leaf. The plants were then transferred to a greenhouse set at 20° C. for disease to develop. When disease symptoms were fully expressed on the 1st leaves of untreated plants, infection levels were assessed on a scale of 0 to 100 percent disease severity. Percent disease control was calculated using the ratio of disease severity on treated plants relative to untreated plants. Evaluation of Fungicidal Activity: Wheat Glume Blotch (Leptosphaeria Nodorum; Bayer Code […]) Wheat plants (variety Yuma) were grown from seed in a greenhouse in 50% mineral soil/50% soil-less Metro mix until the first leaf was fully emerged, with 7-10 seedlings per pot. These plants were inoculated with an aqueous spore suspension of Leptosphaeria nodorum 24 hr after fungicide treatments. After inoculation the plants were kept in 100% relative humidity (one day in a dark dew chamber followed by two days in a lighted dew chamber at 20° C.) to permit spores to germinate and infect the leaf. The plants were then transferred to a greenhouse set at 20° C. for disease to develop. Fungicide formulation, application and disease assessment followed the procedures as described in the Example A.
For `COc1ccnc(C(=O)N[C@H]2COC[C@H](Cc3ccccc3)[C@@H](Oc3ccccc3)[C@H](C)OC2=O)c1OCOC(C)=O` [Compound 40], the pest or weed control at 100 ppm fell in the range of 80 to 100%.

Take `COC(=O)/C=C/O[C@@H]1[C@@H](Cc2ccccc2)COC[C@H](NC(=O)c2nccc(OC)c2OCOC(C)=O)C(=O)O[C@H]1C` [Compound 36]: the pest or weed control at 100 ppm lay in the range of 80 to 100%.

As to `COc1ccnc(C(=O)N[C@H]2COC[C@H](Cc3ccccc3)[C@@H](OCCCc3ccccc3)[C@H](C)OC2=O)c1OCOC(C)=O` [Compound 34], the pest or weed control at 100 ppm lay within 80 to 100%.

For the next assay, the system named is Magnaporthe grisea; Anamorph: Pyricularia oryzae. In words: whole plant or invertebrate. The class given is in vivo. Conditions: 24 h, read-out: Disease Control PYRIOR 1DP.
In the case of `COc1ccnc(C(=O)N[C@H]2COC[C@H](Cc3ccccc3)[C@@H](Oc3ccccc3)[C@H](C)OC2=O)c1OCOC(C)=O` [Compound 40], the pest or weed control at 100 ppm was 80 to 100%.

Turning to `COC(=O)/C=C/O[C@@H]1[C@@H](Cc2ccccc2)COC[C@H](NC(=O)c2nccc(OC)c2OCOC(C)=O)C(=O)O[C@H]1C` [Compound 36], the pest or weed control at 100 ppm was in the range of 80 to 100%.

As to `COc1ccnc(C(=O)N[C@H]2COC[C@H](Cc3ccccc3)[C@@H](OCCCc3ccccc3)[C@H](C)OC2=O)c1OCOC(C)=O` [Compound 34], the pest or weed control at 100 ppm is 80 to 100%.

The next assay concerns Alternaria solani. Description: Tomato early blight (ALTESO) fungicidal activity. The conditions noted are these: 24 h, 1 Day Protectant, read-out: Disease Control ALTESO 1DP. The class given is in vivo. The method, then:
Technical grades of materials were dissolved in acetone, which were then mixed with nine volumes of water containing 110 ppm Triton X-100. The fungicide solutions were applied onto wheat seedlings using an automated booth sprayer to run-off. All sprayed plants were allowed to air dry prior to further handling. Wheat plants (variety Yuma) were grown from seed in a greenhouse in 50% mineral soil/50% soil-less Metro mix until the first leaf was fully emerged, with 7-10 seedlings per pot. These plants were inoculated with an aqueous spore suspension of Septoria tritici either prior to or after fungicide treatments. After inoculation the plants were kept in 100% relative humidity (one day in a dark dew chamber followed by two to three days in a lighted dew chamber at 20° C.) to permit spores to germinate and infect the leaf. The plants were then transferred to a greenhouse set at 20° C. for disease to develop. When disease symptoms were fully expressed on the 1st leaves of untreated plants, infection levels were assessed on a scale of 0 to 100 percent disease severity. Percent disease control was calculated using the ratio of disease severity on treated plants relative to untreated plants. Evaluation of Fungicidal Activity: Tomato Early Blight (Alternaria Solani; Bayer Code […]) Tomato plants (variety Outdoor girl) were propagated in soil-less Metro mix, with each pot having one plant, and used when 12 to 14 days old. Test plants were inoculated with an aqueous spore suspension of Alternaria solani 24 hr after fungicide treatments. After inoculation the plants were kept in 100% relative humidity (one day in a dark dew chamber followed by two to three days in a lighted dew chamber at 20° C.) to permit spores to germinate and infect the leaf. The plants were then transferred to a growth room at 22° C. for disease to develop. Fungicide formulation, application and disease assessment on the sprayed leaves followed the procedures as described in the Example A.
Take `COc1ccnc(C(=O)N[C@H]2COC[C@H](Cc3ccccc3)[C@@H](Oc3ccccc3)[C@H](C)OC2=O)c1OCOC(C)=O` [Compound 40]: the pest or weed control at 100 ppm was in the range of 80 to 100%.

Regarding `COC(=O)/C=C/O[C@@H]1[C@@H](Cc2ccccc2)COC[C@H](NC(=O)c2nccc(OC)c2OCOC(C)=O)C(=O)O[C@H]1C` [Compound 36], the pest or weed control at 100 ppm lay in the range of 0 to 80%.

On to `COc1ccnc(C(=O)N[C@H]2COC[C@H](Cc3ccccc3)[C@@H](OCCCc3ccccc3)[C@H](C)OC2=O)c1OCOC(C)=O` [Compound 34], for which the pest or weed control at 100 ppm fell in the range of 80 to 100%.

For a further assay, the system named is Glomerella lagenarium; Anamorph: Colletotricum lagenarium. Description: Cucumber anthracnose (COLLLA) fungicidal activity. The format is in vivo. Conditions: Colletotrichum orbiculare, 24 h, 1 Day Protectant, read-out: Disease Control COLLLA 1DP. On the procedure:
Technical grades of materials were dissolved in acetone, which were then mixed with nine volumes of water containing 110 ppm Triton X-100. The fungicide solutions were applied onto wheat seedlings using an automated booth sprayer to run-off. All sprayed plants were allowed to air dry prior to further handling. Wheat plants (variety Yuma) were grown from seed in a greenhouse in 50% mineral soil/50% soil-less Metro mix until the first leaf was fully emerged, with 7-10 seedlings per pot. These plants were inoculated with an aqueous spore suspension of Septoria tritici either prior to or after fungicide treatments. After inoculation the plants were kept in 100% relative humidity (one day in a dark dew chamber followed by two to three days in a lighted dew chamber at 20° C.) to permit spores to germinate and infect the leaf. The plants were then transferred to a greenhouse set at 20° C. for disease to develop. When disease symptoms were fully expressed on the 1st leaves of untreated plants, infection levels were assessed on a scale of 0 to 100 percent disease severity. Percent disease control was calculated using the ratio of disease severity on treated plants relative to untreated plants. Evaluation of Fungicidal Activity: Cucumber Anthracnose (Glomerella Lagenarium; Anamorph: Colletotricum Lagenarium; Bayer Code COLLLA) Cucumber seedlings (variety Bush Pickle) were propagated in soil-less Metro mix, with each pot having one plant, and used in the test when 12 to 14 days old. Test plants were inoculated with an aqueous spore suspension of Colletotricum lagenarium 24 hr after fungicide treatments. After inoculation the plants were kept in a dew room at 22° C. with 100% relative humidity for 48 hr to permit spores to germinate and infect the leaf. The plants were then transferred to a growth room set at 22° C. for disease to develop. Fungicide formulation, application and disease assessment on the sprayed leaves followed the procedures as described in the Example A.
With `COc1ccnc(C(=O)N[C@H]2COC[C@H](Cc3ccccc3)[C@@H](Oc3ccccc3)[C@H](C)OC2=O)c1OCOC(C)=O` [Compound 40], the pest or weed control at 100 ppm was 80 to 100%.

Turning to `COC(=O)/C=C/O[C@@H]1[C@@H](Cc2ccccc2)COC[C@H](NC(=O)c2nccc(OC)c2OCOC(C)=O)C(=O)O[C@H]1C` [Compound 36], the pest or weed control at 100 ppm was in the range of 80 to 100%.

As for `COc1ccnc(C(=O)N[C@H]2COC[C@H](Cc3ccccc3)[C@@H](OCCCc3ccccc3)[C@H](C)OC2=O)c1OCOC(C)=O` [Compound 34], the pest or weed control at 100 ppm is 80 to 100%.
